MTC, CC50 and EC50 data for 14 compounds are collected here from ChEMBL document CHEMBL1130885, “A potent and selective inhibition of parainfluenza 1 (Sendai) virus by new 6-oxiranyl-, 6-methyloxiranyluracils, and 4(3H)-pyrimidinone derivatives” (1998).

For orientation: CC50 means the concentration that lowers cell viability or growth by half.

Where only a bound is given, the exact number is not on record here.

In experiment [1] the test system is MDCK. The experiment can be described thus: Minimum toxic concentration required to cause microscopically detectable alteration of confluent madin Darby canine kidney (MDCK)cell morphology. It is filed as functional, Canis lupus familiaris.
For experiment [2], the species on record is Mus musculus. Description: Inhibitory concentration required to inhibit proliferation in mouse myeloma cells. It is filed as functional.
Experiment [3] concerns MDCK. The experiment can be described thus: Antiviral activity against parainfluenza 1 (sendai) virus was determined in madin Darby canine kidney (MDCK)i cells. It is filed as functional, Canis lupus familiaris. As to conditions: read-out: ED50 (the source's name).

As for `Cn1c(CC2(C(C)(C)C)CO2)cc(=O)n(C)c1=O` (configuration not stated), the MTC in experiment [1] is over 0.79 µM. The compound also registered a CC50 in experiment [2] (Mus musculus) of 7.9 µM. Further, the EC50 in experiment [3] (Canis lupus familiaris, MDCK) was found to be 0.59 µM.

The compound `CCCOc1nc(CC2(c3ccccc3)CO2)cc(=O)n1C` (configuration not stated) gave an MTC in experiment [1] of 330 µM. Moreover, in experiment [2] (Mus musculus), the CC50 is over 30 µM. The EC50 in experiment [3] (Canis lupus familiaris, MDCK) amounted to 16.6 µM.

In turn, `Cn1c(C2OC2c2ccccc2)cc(=O)n(C)c1=O` (stereo in doubt; 6b) returned an MTC in experiment [1] of over 0.8 µM. The compound further came in with a CC50 in experiment [2] of 7.7 µM. In addition, in experiment [3], the EC50 was 0.38 µM.

Turning to `Cn1c(C2OC2(C)c2ccccc2)cc(=O)n(C)c1=O` (configuration not stated), the MTC in experiment [1] is over 0.81 µM. Further, the half-maximal cytotoxic concentration (CC50) in experiment [2] (Mus musculus) came to 7.3 µM. For the same compound, the EC50 in experiment [3] (Canis lupus familiaris, MDCK) stood at 0.47 µM.

Compound `CCCOc1nc(CC23CCCCC2O3)cc(=O)n1C` (configuration not stated) yielded an MTC in experiment [1] of over 352 µM. The compound also came in with a CC50 in experiment [2] (Mus musculus) of over 352 µM. The EC50 in experiment [3] (Canis lupus familiaris, MDCK) worked out at 176 µM.

As for `C[C@@H]1O[C@@]1(C)Cc1cc(=O)n(C)c(=O)n1C`, the MTC in experiment [1] is over 2 µM. This compound registered a CC50 in experiment [2] (Mus musculus) of 89 µM. Also, the EC50 in experiment [3] (Canis lupus familiaris, MDCK) was over 2 µM.

In experiment [1], `Cn1c(CC23CCCCC2O3)cc(=O)n(C)c1=O` (configuration not stated) returned an MTC of over 2 µM. In addition, in experiment [2] (Mus musculus), the CC50 is 40 µM. Moreover, the EC50 in experiment [3] (Canis lupus familiaris, MDCK) was over 2 µM.

On to `Cn1c(C2OC2c2ccccc2)cc(=O)n(C)c1=O` (stereo in doubt; 6c), for which the MTC in experiment [1] came to 380 µM. In experiment [2], this compound displayed a CC50 of over 380 µM. The EC50 in experiment [3] is 193 µM.

In experiment [1], `CC1OC1(C)Cc1cc(=O)n(C)c(OC2CCCCC2)n1` (configuration not stated) came in with an MTC of 342 µM. In experiment [2] (Mus musculus), the CC50 was over 342 µM. Besides, the EC50 in experiment [3] (Canis lupus familiaris, MDCK) turned out to be 171 µM.

`Cn1c(CC2(c3ccccc3)CO2)cc(=O)n(C)c1=O` (configuration not stated): in experiment [1], the MTC is 0.37 µM. The CC50 in experiment [2] (Mus musculus) amounted to 3.7 µM. In experiment [3] (Canis lupus familiaris, MDCK), the EC50 came out at 0.18 µM.

The compound `Cn1c(OC2CCCCC2)nc(CC2(c3ccccc3)CO2)cc1=O` (configuration not stated) showed an MTC in experiment [1] of 294 µM. Further, the CC50 in experiment [2] (Mus musculus) is over 294 µM. The EC50 in experiment [3] (Canis lupus familiaris, MDCK) stood at 147 µM.

As to `C[C@H]1O[C@@]1(C)Cc1cc(=O)n(C)c(=O)n1C`, in experiment [1], the MTC is over 2 µM. The compound also returned a cytotoxic concentration (CC50) in experiment [2] (Mus musculus) of 89 µM. In addition, the EC50 in experiment [3] (Canis lupus familiaris, MDCK) was over 2 µM.

For the compound `Cn1c(CC23CCCC2O3)cc(=O)n(C)c1=O` (configuration not stated), in experiment [1], the MTC is over 0.84 µM. Besides, the CC50 in experiment [2] (Mus musculus) was found to be 8.4 µM. The EC50 in experiment [3] (Canis lupus familiaris, MDCK) amounted to 0.42 µM.

Regarding `Cn1c(CC2(C)CO2)cc(=O)n(C)c1=O` (configuration not stated), the MTC in experiment [1] was 0.48 µM. In experiment [2] (Mus musculus), this compound yielded a CC50 of 4 µM. In addition, the EC50 in experiment [3] (Canis lupus familiaris, MDCK) was 0.24 µM.
